Primed or numbered codes have the meaning given here. Ends that are not written are not given here. * marks the point of attachment. Dabcyl′ = 4-((4-(dimethylamino)phenyl)azo)benzoic acid, CN(C)c1ccc(/N=N/c2ccc(C(=O)*)cc2)cc1; EDANS = O=S(=O)(O)c1cccc2c(NCCN*)cccc12
Legend:
HNSCC tissue = assay type: cell-based, human
HNSCC tumor tissue = test: FRET-based sensor tissue incubation (fluorescence, ex 340 nm / em 490 nm); assay type: cell-based, human; details: 10 μM sensor, incubation over 60 min, 37° C., cleavage determined against blank (intact sensor)
Description: All included patients were diagnosed with primary oral squamous cell carcinoma (OSCC). Patients suffering from other tumor entities as well as inoperable cases were excluded from this study.
After performing preoperative tumor staging and incisional biopsy to confirm the diagnosis, stage-appropriate tumor resection, lymph-node dissection, and reconstruction took place. Tumor resection was performed in the usual way, which included using separate margins for frozen section analysis in order to confirm in sano resection. […]
Tissues were stored on ice in sterile filtered in cell culture medium (RPMI-1640, Dutch modification, 10% FCS, 1% Penicillin/Streptomycin, Nystatin). […] After the 24h incubation, one of the tumor tissues was analyzed using FDA. […] The tumor tissue was incubated for 5 min and analyzed via Axio Observer.Z1 microscope equipped with an A-Plan 10×/0.25 Ph1 objective (Zeiss), 38 HE Green Fluorescent Protein (λex=450-490 nm, λem=500-550 nm) and a mercury vapor short-arc lamp.
Tissues were prepared as described before. […] The tissues were incubated at 37° C. and analyzed at t=0, 5, 10, 15, 20, 25, 30, 40, 50 and 60 min via an Infinite M plex (Tecan trading AG, Mannedorf, Switzerland) with an excitation wavelength of λ=340 nm and an emission wavelength of λ=490 nm. […]

furin [1] = molecular target: T1, furin (Homo sapiens, UniProt P09958); test: Cleavage of FRET sensors by furin / illumination of C1S; assay type: biochemical; details: C1S 10 μM incubated with furin for 60 min, illuminated at 350 nm; compared with C1S without furin
T1 sequence (P09958 108-794): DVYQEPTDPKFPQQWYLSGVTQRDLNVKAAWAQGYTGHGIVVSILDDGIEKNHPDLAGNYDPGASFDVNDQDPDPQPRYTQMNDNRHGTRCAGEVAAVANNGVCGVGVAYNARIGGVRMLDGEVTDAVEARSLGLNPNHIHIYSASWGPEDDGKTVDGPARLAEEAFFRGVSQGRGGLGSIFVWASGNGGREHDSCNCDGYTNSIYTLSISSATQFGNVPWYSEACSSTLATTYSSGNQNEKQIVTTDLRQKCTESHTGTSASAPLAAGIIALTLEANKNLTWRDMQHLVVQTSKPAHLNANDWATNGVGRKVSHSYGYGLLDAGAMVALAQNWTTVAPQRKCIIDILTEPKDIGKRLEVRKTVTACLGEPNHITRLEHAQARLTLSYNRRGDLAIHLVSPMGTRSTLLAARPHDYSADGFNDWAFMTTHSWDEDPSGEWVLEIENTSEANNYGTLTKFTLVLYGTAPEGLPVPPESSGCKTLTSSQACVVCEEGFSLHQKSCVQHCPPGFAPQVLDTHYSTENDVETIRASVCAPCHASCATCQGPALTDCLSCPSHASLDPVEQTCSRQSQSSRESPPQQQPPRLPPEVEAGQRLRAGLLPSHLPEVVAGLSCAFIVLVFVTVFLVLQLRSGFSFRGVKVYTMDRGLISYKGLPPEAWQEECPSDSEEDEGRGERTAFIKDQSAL
Description: Negative controls were performed without furin. Experiments were performed n=3. The samples were analyzed using an Infinite M plex (Tecan trading AG, Mannedorf, Switzerland) with an excitation wavelength of λ=340 nm and an emission wavelength of A =490 nm.
Sensor C1S was incubated as described before under cleavage of FRET sensors with and without furin for 60 min and illuminated via Universal UV Lampe (CAMAG, Germany) with λ=350 nm.

furin [2] = molecular target: T1, furin; test: Peptide cleavage by furin, analysed by HPLC (AUC of main peak vs negative control without furin); details: cleavage of PSL via furin within 15 min; 0.1 mM peptide, 1 U furin, 37° C., n=3
Description: Lyophilized peptides were solubilized in furin buffer (100 mM HEPES pH 7.5, 5 mM CaCl2) to 1 mM stock solutions. Cleavage was performed at 37° C. under rigorous shaking in 30 μL furin buffer containing 0.1 mM of the respective peptide and 1 U furin per reaction. The reaction was stopped via addition of 5 mM EDTA final concentration. Experiments were performed n=3.
Analytical HPLC was carried out via an Agilent 1260 infinity II HPLC (Agilent Technologies Inc., Waldbronn, Germany) using a Zorbax 300SB-CN 5 μm analytical 4.6×150 mm LC column (Agilent Technologies Inc., Waldbronn, Germany) The device was equipped with a diode array detector (G7115A, Agilent), a fluorescence detector (G7121A, Agilent), an automatic vial sampler (G7129C, Agilent), flexible Pump (G7104C, Agilent), and multicolumn oven (G7116A, Agilent). Mobile phase A was 0.1% TFA in Millipore water. Mobile phase B was ACN with 0.1% TFA, flow was set to 1 ml/min, injection volume was 15 μl, and the wavelength of the detector was set to A=214 nm. […]
Cleavage percent was analyzed by comparing the area under the curve (AUC) of the main peak from the respective peptide incubated with furin, compared to a negative control without furin.

Substance	time after which a fluorescent signal difference between HNSCC and healthy tissue is visually recognizable (HNSCC tissue) [min]	fold increase of sensor cleavage of the tumor tissue compared to healthy tissue (HNSCC tumor tissue) [fold]	fluorescence observed visually after incubation with furin (furin [1])	Cleavage (furin [2]) [%]	visual difference between healthy and HNSCC tissues in the first 30 minutes (HNSCC tissue)
Ac-K(Dabcyl)-RRARSVAS-E(Edans) (Ac-K(Dabcyl′)RRARSVASE(EDANS)) [C1S]	5	> 2	distinct cyan fluorescence		
RTAMSAGA [Z5]				26.16	
Ac-EG-K(Dabcyl)-RTAMTAGA-E(Edans)-GE (Ac-EGK(Dabcyl′)RTAMTAGAE(EDANS)GE) [Z3S]	35				no difference could be observed

Source: patent US20260125736A1, “FURIN SENSORS AND APPLICATIONS THEREOF” (FLAREON BIOTECH GMBH, priority 2023, published 2026)
